Experiment: xn = mol fraction of the nth substance listed

CCC(=O)O.CCC(=O)[O-].CC[NH+](CC)CCO + CCCC[n+]1ccn(C)c1.COP(=O)([O-])OC
101 kPa
Conditions | viscosity [mPa·s]
278.15 K, x1 = 0.08 | 1956
283.15 K, x1 = 0.2364 | 446
283.15 K, x1 = 0.4953 | 205.6
283.15 K, x1 = 0.6252 | 170.9
283.15 K, x1 = 0.7416 | 147.7
288.15 K, x1 = 0.6252 | 123.8
293.15 K, x1 = 0.3281 | 154
293.15 K, x1 = 0.8667 | 70.8
298.15 K, x1 = 0.7416 | 60.3
298.15 K, x1 = 1 | 66.2
303.15 K, x1 = 0.08 | 280.9
303.15 K, x1 = 0.2364 | 123.4
303.15 K, x1 = 0.4183 | 70.2
303.15 K, x1 = 0.8667 | 41.6
308.15 K, x1 = 0.4183 | 54.9
308.15 K, x1 = 0.8667 | 32.8
313.15 K, x1 = 0.3281 | 53.8
313.15 K, x1 = 0.4953 | 39.2
318.15 K, x1 = 0.6252 | 27.36
323.15 K, x1 = 0.2364 | 47.3
323.15 K, x1 = 0.4953 | 25.98
328.15 K, x1 = 0.2364 | 38.66
328.15 K, x1 = 0.7416 | 16.29
328.15 K, x1 = 0.8667 | 14.65
333.15 K, x1 = 0.4953 | 18.11
333.15 K, x1 = 0.8667 | 12.33
333.15 K, x1 = 1 | 14.08
338.15 K, x1 = 0.08 | 48.11
338.15 K, x1 = 0.2364 | 26.76
338.15 K, x1 = 0.6252 | 13.4
338.15 K, x1 = 0.7416 | 11.64
343.15 K, x1 = 0.4953 | 13.09
348.15 K, x1 = 0.1549 | 25.27
348.15 K, x1 = 0.4183 | 12.61
348.15 K, x1 = 0.6252 | 9.95
348.15 K, x1 = 0.8667 | 7.75
353.15 K, x1 = 0.1549 | 21.56
353.15 K, x1 = 0.4183 | 10.98
358.15 K, x1 = 0.4183 | 9.63
358.15 K, x1 = 0.4953 | 8.59
358.15 K, x1 = 0.6252 | 7.61
363.15 K, x1 = 0.7416 | 5.82
363.15 K, x1 = 1 | 5.7
368.15 K, x1 = 0.08 | 17.66
368.15 K, x1 = 0.1549 | 14.09
368.15 K, x1 = 0.7416 | 5.16
373.15 K, x1 = 0.7416 | 4.6
373.15 K, x1 = 1 | 4.41

CC(C)=O + CCCC[n+]1ccn(C)c1.F[B-](F)(F)F
Conditions | electrical conductivity, 296.15 K [S/m] | viscosity, 303.15 K [mPa·s] | viscosity, 313.15 K [mPa·s] | viscosity, 323.15 K [mPa·s]
100 kPa, x2 = 0 | – | 0.303 | 0.276 | 0.255
101 kPa, x1 = 1 | 0.05 | – | – | –

CCCCCC[n+]1ccn(C)c1.F[B-](F)(F)F + CCCC[n+]1ccn(C)c1.F[B-](F)(F)F
101 kPa
Conditions | viscosity [mPa·s]
298.15 K, x2 = 0.103 | 195.1
298.15 K, x2 = 0.8917 | 115.3
299.15 K, x2 = 0.103 | 184.2
299.15 K, x2 = 0.809 | 115.7
301.15 K, x2 = 0.809 | 104.4
301.15 K, x2 = 0.8917 | 98.6
302.15 K, x2 = 0.3602 | 132.9
302.15 K, x2 = 0.555 | 115.9
302.15 K, x2 = 0.8917 | 93.9
303.15 K, x2 = 0.3602 | 126.2
303.15 K, x2 = 0.555 | 110
303.15 K, x2 = 0.809 | 94.5
303.15 K, x2 = 0.8917 | 89.3
304.15 K, x2 = 0.103 | 139.2
304.15 K, x2 = 0.5047 | 110
305.15 K, x2 = 0.3602 | 113.5
305.15 K, x2 = 0.4383 | 107.7
305.15 K, x2 = 0.598 | 98.5
305.15 K, x2 = 0.809 | 85.6
307.15 K, x2 = 0.054 | 123.9
308.15 K, x2 = 0.103 | 113
308.15 K, x2 = 0.3602 | 97.3
308.15 K, x2 = 0.4383 | 92.8

COCCOCCO + CCCC[n+]1ccn(C)c1.F[B-](F)(F)F
100 kPa
Conditions | viscosity [mPa·s]
283.15 K, x2 = 0.05366 | 7.07
283.15 K, x2 = 0.09486 | 8.3
283.15 K, x2 = 0.1969 | 12.44
283.15 K, x2 = 0.2893 | 17.54
283.15 K, x2 = 0.3913 | 25.12
283.15 K, x2 = 0.4909 | 35.39
283.15 K, x2 = 0.5826 | 48.46
283.15 K, x2 = 0.6949 | 71.9
283.15 K, x2 = 0.7838 | 100
283.15 K, x2 = 0.8792 | 145
283.15 K, x2 = 0.9489 | 192.9
293.15 K, x2 = 0.04883 | 4.923
293.15 K, x2 = 0.09356 | 5.88
293.15 K, x2 = 0.192 | 8.36
293.15 K, x2 = 0.292 | 11.92
293.15 K, x2 = 0.3812 | 15.94
293.15 K, x2 = 0.4892 | 22.53
293.15 K, x2 = 0.5841 | 30.52
293.15 K, x2 = 0.6808 | 41.95
293.15 K, x2 = 0.7796 | 58.1
293.15 K, x2 = 0.8752 | 81.9
293.15 K, x2 = 0.9414 | 109.4
303.15 K, x2 = 0.05005 | 3.91
303.15 K, x2 = 0.1374 | 4.662
303.15 K, x2 = 0.2026 | 6.323
303.15 K, x2 = 0.2965 | 8.36
303.15 K, x2 = 0.3975 | 11.28
303.15 K, x2 = 0.491 | 15.38
303.15 K, x2 = 0.5868 | 20.14
303.15 K, x2 = 0.6897 | 27.27
303.15 K, x2 = 0.7826 | 36.34
303.15 K, x2 = 0.8807 | 50.95
303.15 K, x2 = 0.9393 | 63.1
313.15 K, x2 = 0.04527 | 2.966
313.15 K, x2 = 0.09794 | 3.523
313.15 K, x2 = 0.2017 | 4.838
313.15 K, x2 = 0.2869 | 6.194
313.15 K, x2 = 0.3858 | 8.06
313.15 K, x2 = 0.4987 | 10.87
313.15 K, x2 = 0.5953 | 13.94
313.15 K, x2 = 0.6918 | 18.09
313.15 K, x2 = 0.7818 | 23.11
313.15 K, x2 = 0.8804 | 29.78
313.15 K, x2 = 0.9409 | 34.99

c1ccncc1 + CCCC[n+]1ccn(C)c1.F[B-](F)(F)F
298.15 K, 101 kPa
Conditions | electrical conductivity [S/m] | viscosity [mPa·s]
x1 = 0.1059 | 0.264 | 82
x1 = 0.2 | 0.347 | 58
x1 = 0.3028 | 0.456 | 39.2
x1 = 0.3969 | 0.601 | 26.4
x1 = 0.5033 | 0.792 | 16.4
x1 = 0.6063 | 1.01 | 9.9
x1 = 0.6873 | 1.17 | 6.39
x1 = 0.807 | 1.3 | 3.2
